Laboratory results: US6806267B1, “Apoptosis-inducing compounds” (priority 1998, dated 2004)

Experiments:
K562 cells = experiment: Apoptosis in K562 cells, cytospin and staining; format: cell-based, human; settings: for protection against PBOX-6 induced apoptosis / effect of tyrosine kinase inhibitor pretreatment on PBOX-6 induced apoptosis: K562; for protection against PBOX-6 induced apoptosis: Vitamin E 1 hour or N-acetylcysteine 24 hours, then PBOX-6 16 hours; for effect of tyrosine kinase inhibitor pretreatment on PBOX-6 induced apoptosis: genistein 100 μM, herbimycin A 5 μM, tyrophostin 200 μM; for effect of pretreatment on PBOX-6 induced apoptosis: K562, 1 hour prior to PBOX-6 16 hours; for induction of apoptosis: K562 cells
HL-60 cells = experiment: Apoptosis in HL-60 cells, cytospin and Rapi-Diff staining; settings: for cytotoxicity at 10 µM: Homo sapiens, HL-60, 16 h, read-out: % Apoptosis; for protection against PBOX-6 induced apoptosis: HL-60, N-acetylcysteine 5 mM or TEMPO 1 μM, 30 min prior to PBOX-6 8 hours; for induction of apoptosis at 10 μM / induction of apoptosis at a higher concentration: HL 60 cells; for induction of apoptosis at a higher concentration: higher concentration printed as 10 μM
[1] = molecular target: T1, peripheral-type benzodiazepine receptor (PBR) (Homo sapiens, UniProt P30536); experiment: Radioligand binding assay, inhibition of [^3H]PK 11195 binding to HL-60 homogenates; settings: for Ki: HL-60 homogenates, 2 nM [^3H]PK 11195, mean±SEM, read-out: Inhibition of [^3H]PK 11195 binding to the PBR, Ki value
T1 construct: Cell homogenates (50 μg protein) were incubated with 0.5-50 nM [^3H]; PK 11195; endogenous in cells; host or cells: HL-60 cell homogenate
T1 sequence (P30536 whole entry): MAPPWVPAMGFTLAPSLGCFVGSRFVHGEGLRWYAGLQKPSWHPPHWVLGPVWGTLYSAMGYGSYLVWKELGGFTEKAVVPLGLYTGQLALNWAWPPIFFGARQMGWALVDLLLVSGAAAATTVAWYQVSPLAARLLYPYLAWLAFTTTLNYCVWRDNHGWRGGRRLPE
Description: HL-60 cells were harvested by centrifugation at 600 g for 5 min and washing in phosphate-buffered saline. The resulting cell pellet was homogenised in 50 mM Tris/HCl buffer, pH 7.4 (2 ml), using an Ultraturrax homogeniser (10 sec) and then passed 5 times through a 21 gauge needle. Cell homogenates (50 μg protein) were incubated with 0.5-50 nM [^3H] PK 11195 in 50 mM Tris/HCl buffer, pH 7.4 (incubation buffer), in a total volume of 0.5 ml on ice. Total and non-specific/non-saturable binding in each case was determined in the absence and presence of 10 μM unlabelled PK 11195 respectively. All samples were incubated in triplicate for 60 min. The incubation mixtures were then filtered and counted as previously described (O'Beirne, et al., 1988). When testing the potency of a compound to inhibit [^3H] PK 11195 binding, samples were incubated with 2 nM [3H] PK 11195 and various concentrations (0.1 nM to 1 μM) of compound and subsequently treated exactly as above. The resulting Ki values were then generated by the use of the computer programs EBDA and LIGAND.
The amount of radioactivity bound in the presence of the displacer was expressed as a percentage of control bonding and the values represent the mean±SEM of triplicate determinations from one representative experiment performed at least twice. The Ki values were obtained as described in Methods section.

[2] = system: tyrosine phosphorylated proteins; experiment: Protein tyrosine phosphorylation Western blot, K562 cells; format: cell-based, human; settings: K562, 100 μM in DMSO, 1 hr prior to PBOX-6
Description: Jurkat and CML cells (5×10^6) were harvested by centrifuigation at 1800 g for 10 min at 4° C. After being washed once with ice-cold phosphate-buffered saline, the cell pellet was suspended in 100 μl of ice-cold lysis buffer (50 mM Tris-HCl, pH 8.0, 150 mM NaCl, 0.1%.SDS, 1% Triton X-100, 1 mM sodium 1 mM phenylmethylsulfonyl, 10 ng/ml leupeptin and 10 ng/ml of aprotinin). The cells were left to sit on ice for 10 min and then centrifuged at 20,000 g for 20 min. The resulting supernatant was stored at −70° C. until measurement of tyrosine phosphorylation. Protein determination was measured by using the Bradford assay. Equal amounts of protein were resolved by SDS-polyacrylamide gel electrophoresis in 15% gels and transferred onto polyvinylidene difluoride (PVDF) membranes. Membranes were blocked with Tris-buffered saline with Tween 20 (10 mM Tris-HCl, pH 8.0, 150 mM NaCl, 0.05% Tween 20) containing 1% w/v BSA and probed with anti-phosphotyrosine antibody. Blots were washed, incubated with goat anti-mouse IgG peroxidase conjugate and developed by ECL according to the manufacturer's recommendations.

[3] = system: CML cell lines K562, KYO.1 and Lama 84; experiment: Apoptosis in CML cell lines, cytospin and staining; format: cell-based, human; settings: for induction of apoptosis at 10 μM / induction of apoptosis at 100 μM: CML cells
rat C6 glioma = settings: dose-dependent; cited from earlier work
[4] = system: human 132 l N1 astrocytoma; settings: dose-dependent; cited from earlier work
JNK1 and JNK2 = format: cell-based, human; settings: K562

Vitamin E
protection against PBOX-6 induced apoptosis (K562 cells): failed to protect

CN(C)C(=O)OC1=C(c2cccc3ccccc23)Sc2ccccc2-n2cccc21 [PBOX-8, 7-((Dimethylcarbamoyl)oxy)-6-(1-naphthyl)pyrrolo[2,1-d][1,5]benzothiazepine]
cytotoxicity at 10 µM (HL-60 cells): 38.6 ± 3.1%

CCNC(=O)OC1=C(c2ccccc2)Oc2ccccc2-n2cccc21 [PBOX-25, 7-[(Ethylcarbamoyl)oxy]-6-phenylpyrrolo[2,1-d][1,5]benzoxazepine]
cytotoxicity at 10 µM (HL-60 cells): 19.2 ± 3%

CCC(C)N(C)C(=O)c1cc2ccccc2c(-c2ccccc2Cl)n1 (stereo not shown) [[^3H] PK 11195, reference compound]
Bmax of [^3H] PK 11195 binding ([1]; HL-60 cell homogenates): 9.5±1.5 pmol/mg of protein

O=c1c(-c2ccc(O)cc2)coc2cc(O)cc(O)c12 [genistein, reference compound]
effect of tyrosine kinase inhibitor pretreatment on PBOX-6 induced apoptosis (K562 cells): completely inhibited the induction of apoptosis
effect of pretreatment on PBOX-6 induced protein phosphorylation [2]: prevented the phosphorylation of these two proteins

CC(=O)N[C@@H](CS)C(=O)O [N-acetylcysteine, reference compound]
protection against PBOX-6 induced apoptosis (K562 cells): failed to protect
protection against PBOX-6 induced apoptosis (HL-60 cells): Neither of these compounds were found to protect

z-DEVD-fmk [reference compound]
effect of pretreatment on PBOX-6 induced apoptosis [3]: failed to prevent the induction of apoptosis
effect of pre-treatment on morphological signs of apoptosis induced by PBOX-6 (HL-60 cells): inhibited

O=C1c2c(O)ccc(O)c2C(=O)c2c(NCCNCCO)ccc(NCCNCCO)c21 [mitoxanthrone]
effect of pretreatment on PBOX-6 induced apoptosis (K562 cells): protects against apoptosis
induction of apoptosis (K562 cells): does not induce apoptosis

CC(=O)OC1=C(c2ccc(C)cc2)Oc2ccccc2-n2cccc21 [PBOX-24, 7-Acetoxy-6p-tolylpyrrolo[2,1-d][1,5]benzoxazepine]
cytotoxicity at 10 µM (HL-60 cells): 7 ± 1.2%

CC(=O)OC1=C(c2cccc3ccccc23)Oc2cccnc2-n2cccc21 [PBOX-12, 7-Acetoxy-6-(1-naphthyl)pyrrolo[1,2-d]pyrido[3,2-b][1,4]oiazepine]
cytotoxicity at 10 µM (HL-60 cells): 27.1 ± 2.7%

CCCC(=O)OC1=C(c2ccc(OC)cc2)[S+]([O-])c2ccccc2-n2cccc21 (stereo not shown) [PBOX-30, 7-(Butyryloxy)-6-(p-methoxyphenyl)pyrrolo[2,1-d][1,5]-benzothiazepine 5-Oxide]
cytotoxicity at 10 µM (HL-60 cells): 33.1 ± 1.6%

CC(=O)OC1=C(c2cccc3ccccc23)Sc2ccccc2-n2cccc21 [PBOX-9, 7-Acetoxy-6-(1-naphthyl)pyrrolo[2,1-d][1,5]benzothiazepine]
cytotoxicity at 10 µM (HL-60 cells): 40.4 ± 3%

CN1C(=O)CN=C(c2ccc(Cl)cc2)c2cc(Cl)ccc21 [Ro5-4864, 7-chloro-5-(4-chlorophenyl)-1,3-dihydro-1-methyl-2-H-1,4-benzodiazepin-2-one]
induction of apoptosis at 10 μM [3]: failed to induce apoptosis
induction of apoptosis at 100 μM [3]: apoptosis was induced, although not to the same extent
inhibition of proliferation, without being cytotoxic (rat C6 glioma): inhibit at micromolar concentrations
inhibition of proliferation, without being cytotoxic [4]: inhibit at micromolar concentrations
induction of apoptosis at 10 μM (HL-60 cells; 10 μM): did not induce apoptosis
induction of apoptosis at a higher concentration (HL-60 cells): induced apoptosis

CCN(CC)C(=O)OC1=C(c2ccc(C)cc2)Oc2ccccc2-n2cccc21 [PBOX-21]
inhibition of proliferation, without being cytotoxic (rat C6 glioma): inhibit at micromolar concentrations
inhibition of proliferation, without being cytotoxic [4]: inhibit at micromolar concentrations

COc1cc([C@@H]2c3cc4c(cc3[C@@H](O[C@@H]3O[C@@H]5CO[C@@H](C)O[C@H]5[C@H](O)[C@H]3O)[C@H]3COC(=O)[C@H]23)OCO4)cc(OC)c1O [etoposide]
effect of pretreatment on PBOX-6 induced apoptosis (K562 cells): protects against apoptosis
apoptosis (K562 cells; K562, up to 24 hours): failed to undergo apoptosis
induction of apoptosis (K562 cells): does not induce apoptosis
effect of Topo II inhibitor pretreatment on PBOX-6 induced JNK activation (JNK1 and JNK2): failed to prevent against PBOX-6 induced activation of JNK

COc1ccc(C2=C(OC(=O)c3ccncc3)c3cccn3-c3ccccc3S2)cc1 [PBOX-28, 7-Isonicotinoyloxy-6-p-methoxyphenylpyrrolo[2,1-d][1,5]-benothiazepine]
cytotoxicity at 10 µM (HL-60 cells): 31.1 ± 1.7%

CC1(C)CCCC(C)(C)N1[O] [TEMPO, reference compound]
protection against PBOX-6 induced apoptosis (HL-60 cells): Neither of these compounds were found to protect

CCC(C)N(C)C(=O)c1cc2ccccc2c(-c2ccccc2Cl)n1 (stereo not shown) [PK 11195, 1-(2-chlorophenyl)-N-methyl-N-(1-methylpropyl)-3-isoquinolinecarboxamide]
induction of apoptosis at 10 μM [3]: failed to induce apoptosis
induction of apoptosis at 100 μM [3]: apoptosis was induced, although not to the same extent
inhibition of proliferation, without being cytotoxic (rat C6 glioma): inhibit at micromolar concentrations
inhibition of proliferation, without being cytotoxic [4]: inhibit at micromolar concentrations
induction of apoptosis at 10 μM (HL-60 cells; 10 μM): did not induce apoptosis
induction of apoptosis at a higher concentration (HL-60 cells): induced apoptosis

CC(=O)OC1=C(c2cccc3ccccc23)Oc2ccccc2-n2cccc21 [PBOX-4, 7-Acetoxy-6-(1-naphthyl)pyrrolo[2,1-d][1,5]benzoxazepine]
Ki [1]: 1.9 ± 2.3 nM
cytotoxicity at 10 µM (HL-60 cells): 42.1 ± 0.6%

CCN(CC)C(=O)OC1=C(c2ccccc2)Oc2cccnc2-n2cccc21 [PBOX-26, 7-((Diethylcarbamoyl)oxy)-6-phenylpyrrolo[1,2-d]pyrido[3,2-b][1,4]oxazepine]
cytotoxicity at 10 µM (HL-60 cells): 7.8 ± 2.3%

CO[C@H]1[C@@H](OC)C[C@H](C)[C@@H](OC)C2=CC(=O)C=C(NC(=O)/C(C)=C/C=C\[C@H](OC)[C@@H](OC(N)=O)/C(C)=C/[C@@H]1C)C2=O [herbimycin A]
effect of tyrosine kinase inhibitor pretreatment on PBOX-6 induced apoptosis (K562 cells): reduced levels of apoptosis

CNC(=O)OC1=C(c2cccc3ccccc23)Oc2ccccc2-n2cccc21 [PBOX-7, 7-[(Methylcarbamoyl)oxy]-6-(1-naphthyl)pyrrolo[2,1-d][1,5]-benzoxazepine]
Ki [1]: 1.7 ± 0.7 nM
degree of necrosis (HL-60 cells; HL-60 cells, 10 μM, 16 hours): negligible
cytotoxicity at 10 µM (HL-60 cells): 40.7 ± 2.5%
